For one assay, the system named is Tbr1^+/− mice. Description: Three-chamber social interaction assay, Tbr1 mice. In kind it is in vivo, mouse. The note with it: 30 mg/kg, 3 hours before test. The source says:
All mice were backcrossed into a C57BL/6 background, and housed and bred in a mouse vivarium at the Korea Advanced Institute of Science and Technology (KAIST, Shank2^−/−mice) and at Academia Sinica (Tbr1^+/− mice). Pups were kept with the dam until weaning at postnatal day 21. After weaning, animals were group housed in mixed-genotype groups of 3 to 5 mice per cages, and randomly subjected to electrophysiological and behavioral experiments. Animals at 3 to 5 weeks of age were used for electrophysiological experiments; male animals at 2 to 4 months of age were used for behavioral assays. For TFL-Zn staining, male animals at 8 weeks (for Shank2^−/−mice) were used. Wild-type littermates were used as controls.
The injection was performed 2 hours before (Shank2^−/− mice and wild-type littermates), or 3 hours before (Tbr1^+/− mice and wild-type littermates) behavioral assays at the discretion of the facility.
Testing was conducted in dedicated behavioral test rooms during the light phase (three-chamber test) and the dark phase (repetitive behaviors and open field test).
In short, the assay consisted of three phases of 10 minutes duration: habituation, social interaction (Stranger1 vs. Object), and social novelty recognition (Stranger 1 vs. Stranger 2). Exploration was defined as each instance in which wild-type or mutant mouse tries to sniff Object/Stranger, or orients its nose towards and come close to object/stranger. Individual movement tracks were analyzed by Ethovision 10.0 (Noldus) and modified by custom-designed software MatLab (Mathworks) to generate heat maps. Time spent in exploration was analyzed by the researcher who was blinded to the subject genotype (in Shank2 mice), or by using the Smart Video Tracking System (Panlab, in Tbr1 mice). In addition to exploration time, the preference index, which represents a numerical difference between time spent exploring the targets (Stranger1 vs. Object, or Stranger 2 vs. Stranger 1) divided by total time spent exploring both targets, as described previously.

Assay [1] has as its system NMDAR. The experiment in a line: Simultaneous NMDA- and AMPA-eEPSCs at −40 mV, patch-clamp, hippocampal slices. The settings on record: for NMDA-eEPSCs (NMDAR function) at −40 mV: CQ 4 uM, 20 minutes, WT and Shank2^−/− SC-CA1 synapses. In kind it is cell-based, mouse. As for the experimental part: (§1) For electrophysiological experiments, sagittal hippocampal slices (400 uM thick for extracellular, 300 uM thick for intracellular recordings) of Shank2^−/− mice (or ZnT3^−/− mice) and their wild-type littermates were prepared using a vibratome (Leica VT1200) in ice-cold dissection buffer containing (in mM) 212 sucrose, 25 NaHCO3, 5 KCl, 1.25 NaH2PO4, 0.5 CaCl2, 3.5 MgSO4, 10 D-glucose, 1.25 L-ascorbic acid, and 2 Na-pyruvate bubbled with 95% 02/5% CO2. CA3 was removed to prevent epileptiform activity. Slices were restored for 1 hour in 32° C. in a normal artificial CSF (ACSF) (In units of mM: 124 NaCl, 2.5 kCl, 1 NaH2PO4, 25 NaHCO3, 10 glucose, 2 CaC12, 2 Mg504 oxidized by 95% 02/5% CO2) For the recording, a single slice was moved to and maintained in submerged-type chamber at 28° C., continuously perfused with ACSF (2 mL/minute) saturated with 95% 02/5% CO2. Stimulation and recording pipettes were pulled from borosilicate glass capillaries (Harvard Apparatus) using a micropipette electrode puller (Narishege).
Whole-cell patch-clamp recordings of hippocampal CA1 pyramidal neurons were also made using a MultiClamp 700B amplifier (Molecular Devices) and Digidata 1440A (Molecular Devices). During whole-cell patch-clamp recordings, series resistance was monitored each sweep by measuring the peak amplitude of the capacitance currents in response to short hyperpolarizing step pulse (5 mV, 40 ms); only cells with a change in <25% were included in the analysis. For NMDA (N-Methyl-D-aspartate)/AMPA (alpha-amino-3-hydroxy-5-methylisoxazole-4-propionic acid) ratio experiments, mouse hippocampal slices at the age of postnatal day 17 to 25 were used. The recording pipettes (2.5 to 3.5 MΩ) were filled with an internal solution containing the following (in mM): 100 CsMeSO4, 10 TEA-Cl, 8 NaCl, 10 HEPES, 5 QX-314-C1, 2 Mg-ATP, 0.3 Na-GTP, 10 EGTA, with pH 7.25, 295 mOsm). CA1 pyramidal neurons were voltage-clamped at −70 mV, and EPSPs were evoked at every 15 sec. AMPAR-mediatedEPSCs were recorded at −70 mV, and 30 consecutive responses were recorded after stable baseline. After recording AMPAR-mediated EPSPs, holding potential was changed to +40 mV to record NMDA receptor-mediated EPSPs. NMDA component was measured at 60 ms after the stimulation. The NMDA/AMPA ratio was determined by dividing the mean value of 30 NMDA components of EPSPs by the mean value of 30 AMPAR-mediated EPSC peak amplitudes. […] For measuring AMPAR-mediated and NMDAR-mediated EPSCs together upon CQ treatment, pyramidal neurons were voltage-clamped at −40 mV, and EPSCs were evoked at every 15 sec. AMPAR-mediated EPSC was determined as a peak amplitude of EPSC, and NMDAR-mediated EPSC as a component at 60 ms after stimulation. NMDA/AMPA ratio at −40 mV was calculated by using both values, and monitored during the experimental process. […] Picrotoxin (100 uM) was always added to ACSF to block GABAA receptor-mediated currents.

The test system of assay [2] is NMDAR. The experiment in a line: NMDA-fEPSP extracellular recordings, hippocampal slices. Type of assay: cell-based, mouse. The settings on record: for NMDAR function (NMDA-fEPSPs) at ZnT3^−/− synapses: ZnT3^−/− hippocampal SC-CA1 synapses. The method, then:
as §1
For extracellular recordings, mouse hippocampal slices at the age of postnatal day 21 to 35 were used. Field excitatory postsynaptic potentials (fEPSPs) were recorded in the stratum radiatum of the hippocampal CA1 region using pipettes filled with ACSF (1 MΩ). fEPSP was amplified (Multiclamp 700B, Molecular Devices), and digitized (Digidata 1440A, Molecular
Devices) for measurements. The Schaffer collateral pathway was stimulated every 20 seconds with pipettes filled with ACSF (0.3 to 0.5 MΩ). The stimulation intensity was adjusted to yield a half-maximal response, and three successive responses were averaged and expressed relative to the normalized baseline. To induce LTP, high frequency stimulation (100 Hz, 1 s) was applied after a stable baseline was acquired. […] To isolate NMDAR-mediated fEPSPs, ACSF containing 2 mM calcium, 0.1 mM magnesium, and 6,7-dinitroquinoxaline-2,3-dione (10 uM, DNQX, Tocris), which inhibits AMPAR-mediated EPSPs, were used.

Entries after “also recorded” stand apart in the source; their conditions may differ.

Take `Oc1c(I)cc(Cl)c2cccnc12` [clioquinol, 5-Chloro-7-Iodo-8-Hydroxyquinoline]: the Social novelty recognition entry was “had no effect on social novelty recognition” in the assay with Tbr1^+/− mice (Tbr1^+/− (HT) mice); “fails to enhance social novelty recognition; also recorded: has no effect on social novelty recognition” in the assay on Tbr1^+/− mice (Tbr1^+/− (HT) mice, listed as CQ); “had no effect on social novelty recognition” in the assay on Tbr1^+/− mice (wild-type mice); “has no effect” in the assay on Tbr1^+/− mice (wild-type mice, listed as CQ). Further, the “NMDA-eEPSCs (NMDAR function) at −40 mV” value in the assay with NMDAR [1] is on record as “increased NMDA-eEPSCs”; in the assay on NMDAR [1] (listed as CQ), “enhances NMDAR function”. In addition, the “AMPA-eEPSCs at −40 mV” value in the assay on NMDAR [1] (clioquinol treatment, WT and Shank2^−/−) was “not affected”. The “NMDAR function (NMDA-eEPSCs at −40 mV) in the presence of sSrc (40-58)” value in the assay with NMDAR [1] (peptide 0.03 mg/mL in internal solution) was “effectively enhances NMDAR function”. Besides, the “NMDAR function (NMDA-eEPSCs at −40 mV) in the presence of Src (40-58)” value in the assay with NMDAR [1] (peptide 0.03 mg/mL in internal solution, Shank2^−/− SC-CA1 synapses) is listed as “fails to enhance NMDAR function”. Also, in the assay with NMDAR [2] (CQ 4 uM, 20 minutes), the “NMDAR function (NMDA-fEPSPs) in the presence of PP3” value was “effectively enhances NMDAR function”. In the assay on NMDAR [2] (CQ 4 uM, 20 minutes, Ca-EDTA 2 mM throughout recordings), the “NMDAR function (NMDA-fEPSPs) in the presence of Ca-EDTA” value is given as “fails to enhance NMDAR function”. In addition, in the assay on NMDAR [2] (CQ 4 uM, 20 minutes, PP2 10 uM throughout recordings), the “NMDAR function (NMDA-fEPSPs) in the presence of PP2” value is on record as “fails to enhance NMDAR function”. In addition, the “NMDAR function (NMDA-fEPSPs) in the presence of SU6656” value in the assay with NMDAR [2] (CQ 4 uM, 20 minutes, SU6656 10 uM throughout recordings) was “fails to enhance NMDAR function”. Moreover, the “NMDAR function (NMDA-fEPSPs) in the presence of TPEN” value in the assay with NMDAR [2] (CQ 4 uM, 20 minutes, TPEN 25 uM throughout recordings) is “fails to enhance NMDAR function”. The “Initial slopes of NMDA-fEPSPs” value with NMDAR [2] (Shank2^−/− SC-CA1 synapses, clioquinol for 20 minutes) is recorded as ~150 % of baseline levels. Besides, in the assay on NMDAR [2] (WT and KO slices), the “NMDAR function (NMDA-fEPSPs) in the presence of cuprizone” value is recorded as “enhances NMDAR function”. In addition, the “NMDAR function (NMDA-fEPSPs)” value in the assay on NMDAR [2] (WT and Shank2^−/− SC-CA1 synapses, 4 uM, 20 minutes) is “enhances NMDAR function”. Further, the “NMDAR function (NMDA-fEPSPs) at ZnT3^−/− synapses” value in the assay with NMDAR [2] was “had no effect on NMDAR activity”; with NMDAR [2] (listed as CQ), “fails to enhance NMDAR function”.
